# Data from PubChem BioAssay AID328 (DTP/NCI, 2004).
# “And” between values parts separate entries of the source, which are not always exact repeats. Equal entries are not always repeated. Toxic doses and inconclusive results are not listed.
# Tested on: BDF1 mice, P388 leukemia ip, median survival T/C
# Assay: NCI In Vivo Anticancer Drug Screen. Data for tumor model P388 Leukemia (intraperitoneal) in B6D2F1 (BDF1) mice
# Details: endpoint: median survival time, higher = longer survival
# Method in brief: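 Survival ratio, drug arm over vehicle arm, in mice with a transplanted tumour.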
# [1] = dose: 100.0 mg/kg/injection, schedule: Q01DX009 (ip), vehicle: saline
# [2] = dose: 100.0 mg/kg/injection, schedule: Q04DX003 (ip), vehicle: saline
# [3] = dose: 200.0 mg/kg/injection, schedule: Q01DX009 (ip), vehicle: saline
# [4] = dose: 50.0 mg/kg/injection, schedule: Q04DX003 (ip), vehicle: saline sonified
# [5] = dose: 100.0 mg/kg/injection, schedule: Q04DX003 (ip), vehicle: saline sonified
# [6] = dose: 200.0 mg/kg/injection, schedule: Q04DX003 (ip), vehicle: saline sonified
# [7] = dose: 100.0 mg/kg/injection, schedule: Q04DX003 (ip), vehicle: saline with Tween-80
# [8] = dose: 200.0 mg/kg/injection, schedule: Q04DX003 (ip), vehicle: saline with Tween-80
# [9] = dose: 200.0 mg/kg/injection, schedule: Q01DX009 (ip), vehicle: saline with Tween-80
compound,measurement,setting,value
OC1c2ccccc2C=Cc2ccccc21,T/C,"dose: 25.0 mg/kg/injection, schedule: Q01DX001 (ip), vehicle: saline sonified",104 % of control
same,T/C,"dose: 50.0 mg/kg/injection, schedule: Q01DX001 (ip), vehicle: saline sonified",104 % of control
same,T/C,"dose: 100.0 mg/kg/injection, schedule: Q01DX001 (ip), vehicle: saline sonified",100 % of control
CN(N=O)C(=O)NC(C=O)C(O)C(O)C(O)CO (centres undefined),T/C,"dose: 25.0 mg/kg/injection, schedule: Q01DX010 (ip), vehicle: saline",113 % of control
COC(=O)CS(=O)(=O)C(C)(C)C(=O)c1ccccc1,T/C,"dose: 75.0 mg/kg/injection, schedule: Q01DX001 (ip), vehicle: other",100 % of control
same,T/C,"dose: 150.0 mg/kg/injection, schedule: Q01DX001 (ip), vehicle: other",120 % of control
same,T/C,"dose: 300.0 mg/kg/injection, schedule: Q01DX001 (ip), vehicle: other",110 % of control
O=C(CN1CCOCC1)N1CCOCC1,T/C,[1],90 % of control
same,T/C,[2],100 % of control
same,T/C,[3],100 % of control
same,T/C,"dose: 200.0 mg/kg/injection, schedule: Q04DX003 (ip), vehicle: saline",95 % of control
same,T/C,"dose: 400.0 mg/kg/injection, schedule: Q01DX009 (ip), vehicle: saline",100 % of control
same,T/C,"dose: 400.0 mg/kg/injection, schedule: Q04DX003 (ip), vehicle: saline",104 % of control
O[C@H](CN1CC1)[C@@H](O)CN1CC1,T/C,"dose: 62.5 micrograms/kg/injection, schedule: Q01DX010 (ip), vehicle: saline",235 % of control
same,T/C,"dose: 125.0 micrograms/kg/injection, schedule: Q01DX010 (ip), vehicle: saline",230 % of control and 186 % of control
same,T/C,"dose: 250.0 micrograms/kg/injection, schedule: Q01DX010 (ip), vehicle: saline",227 % of control and 187 % of control
same,T/C,"dose: 500.0 micrograms/kg/injection, schedule: Q01DX010 (ip), vehicle: saline",116 % of control and 122 % of control
O=C1C(OC(=O)c2ccccc2)=C(c2ccc(O)cc2)C(=O)C(OC(=O)c2ccccc2)=C1c1ccc(O)cc1,T/C,"dose: 100.0 mg/kg/injection, schedule: Q01DX009 (ip), vehicle: Klucel (hydroxypropylcellulose) (HPC)",100 % of control
same,T/C,"dose: 200.0 mg/kg/injection, schedule: Q01DX009 (ip), vehicle: Klucel (hydroxypropylcellulose) (HPC)",100 % of control
same,T/C,"dose: 400.0 mg/kg/injection, schedule: Q01DX009 (ip), vehicle: Klucel (hydroxypropylcellulose) (HPC)",92 % of control
CC1(C)S[C@@H]2[C@H](NC(=O)CCC[C@@H](N)C(=O)O)C(=O)N2[C@H]1C(=O)O,T/C,"dose: 23.0 mg/kg/injection, schedule: Q01DX009 (ip), vehicle: saline",99 % of control
same,T/C,"dose: 47.0 mg/kg/injection, schedule: Q01DX009 (ip), vehicle: saline",106 % of control
same,T/C,"dose: 94.0 mg/kg/injection, schedule: Q01DX009 (ip), vehicle: saline",107 % of control and 117 % of control and 120 % of control
same,T/C,"dose: 188.0 mg/kg/injection, schedule: Q01DX009 (ip), vehicle: saline",102 % of control and 104 % of control and 106 % of control
same,T/C,"dose: 750.0 mg/kg/injection, schedule: Q01DX009 (ip), vehicle: saline",95 % of control and 102 % of control
COc1ccc(/C=C(/C)[N+](=O)[O-])cc1OC,T/C,"dose: 50.0 mg/kg/injection, schedule: Q01DX001 (ip), vehicle: saline with Tween-80",109 % of control
same,T/C,"dose: 100.0 mg/kg/injection, schedule: Q01DX001 (ip), vehicle: saline with Tween-80",113 % of control
same,T/C,"dose: 100.0 mg/kg/injection, schedule: Q04DX003 (ip), vehicle: Klucel (hydroxypropylcellulose) (HPC)",104 % of control
same,T/C,"dose: 200.0 mg/kg/injection, schedule: Q01DX001 (ip), vehicle: saline with Tween-80",118 % of control
same,T/C,"dose: 200.0 mg/kg/injection, schedule: Q04DX003 (ip), vehicle: Klucel (hydroxypropylcellulose) (HPC)",109 % of control
COC(=O)c1c(C)ccc2c(O)c3c(cc12)C(=O)c1c2c(cc(O)c1C3=O)C1(C)OC(C)(O2)C(O)C(N(C)C)C1O (centres undefined),T/C,"dose: 70.0 mg/kg/injection, schedule: Q01DX009 (ip), vehicle: Klucel (hydroxypropylcellulose) (HPC)",150 % of control
same,T/C,"dose: 140.0 mg/kg/injection, schedule: Q01DX009 (ip), vehicle: Klucel (hydroxypropylcellulose) (HPC)",111 % of control
O=C(O)CCCCCCCC(=O)c1ccccc1,T/C,[4],100 % of control
same,T/C,[5],104 % of control
same,T/C,[6],95 % of control
CC1B(O)Nc2nc(=S)[nH]c(N)c21 (centres undefined),T/C,[4],100 % of control
same,T/C,[5],100 % of control
same,T/C,[6],100 % of control
O=C(CCl)Nc1ccc([As](=O)(O)O)cc1,T/C,"dose: 12.5 mg/kg/injection, schedule: Q01DX009 (ip), vehicle: Klucel (hydroxypropylcellulose) (HPC)",100 % of control
same,T/C,"dose: 25.0 mg/kg/injection, schedule: Q01DX009 (ip), vehicle: Klucel (hydroxypropylcellulose) (HPC)",100 % of control
same,T/C,"dose: 50.0 mg/kg/injection, schedule: Q01DX009 (ip), vehicle: Klucel (hydroxypropylcellulose) (HPC)",90 % of control
CCn1c(O)c(C=N)c(=O)n(CC)c1=O,T/C,"dose: 25.0 mg/kg/injection, schedule: Q01DX009 (ip), vehicle: saline",100 % of control
same,T/C,"dose: 25.0 mg/kg/injection, schedule: Q04DX003 (ip), vehicle: saline",96 % of control
same,T/C,"dose: 50.0 mg/kg/injection, schedule: Q01DX009 (ip), vehicle: saline",104 % of control
same,T/C,"dose: 50.0 mg/kg/injection, schedule: Q04DX003 (ip), vehicle: saline",100 % of control
same,T/C,[2],103 % of control
CN(N)c1ccccc1,T/C,"dose: 6.25 mg/kg/injection, schedule: Q04DX003 (ip), vehicle: saline with Tween-80",93 % of control
same,T/C,"dose: 12.5 mg/kg/injection, schedule: Q04DX003 (ip), vehicle: saline with Tween-80",95 % of control
same,T/C,"dose: 25.0 mg/kg/injection, schedule: Q04DX003 (ip), vehicle: saline with Tween-80",90 % of control
same,T/C,"dose: 50.0 mg/kg/injection, schedule: Q04DX003 (ip), vehicle: saline with Tween-80",104 % of control and 105 % of control
same,T/C,[7],113 % of control
same,T/C,[8],123 % of control
N#CC1=C(N)NC(=O)C(C(N)=O)C1c1ccccc1Cl (centres undefined),T/C,"dose: 50.0 mg/kg/injection, schedule: Q01DX005 (ip), vehicle: saline with Tween-80",89 % of control
same,T/C,"dose: 100.0 mg/kg/injection, schedule: Q01DX005 (ip), vehicle: saline with Tween-80",92 % of control
same,T/C,"dose: 200.0 mg/kg/injection, schedule: Q01DX005 (ip), vehicle: saline with Tween-80",92 % of control
CC1(C)COCN1COC1CCCCC1,T/C,[9],90 % of control
N/C(=N\OS(=O)(=O)c1ccccc1)Oc1ccccc1,T/C,[7],97 % of control
same,T/C,[8],95 % of control
same,T/C,"dose: 400.0 mg/kg/injection, schedule: Q04DX003 (ip), vehicle: saline with Tween-80",99 % of control
COc1ccc(C(O)(CS(C)=O)c2cccs2)cc1 (centres undefined),T/C,"dose: 100.0 mg/kg/injection, schedule: Q01DX009 (ip), vehicle: saline with Tween-80",107 % of control
same,T/C,[9],99 % of control
CN1CCN=C1c1ccc(NC(=O)c2ccc(C(=O)Nc3ccc(C4=NCCN4C)cc3)c(N)c2)cc1,T/C,"dose: 0.5 mg/kg/injection, schedule: Q01DX009 (ip), vehicle: saline with Tween-80",150 % of control
same,T/C,"dose: 1.0 mg/kg/injection, schedule: Q01DX009 (ip), vehicle: saline with Tween-80",154 % of control
same,T/C,"dose: 2.0 mg/kg/injection, schedule: Q01DX009 (ip), vehicle: saline with Tween-80",181 % of control
same,T/C,"dose: 2.0 mg/kg/injection, schedule: Q01DX009 (ip), vehicle: saline",154 % of control
same,T/C,"dose: 3.0 mg/kg/injection, schedule: Q01DX009 (ip), vehicle: saline",166 % of control
COC(=O)C1CCCCC1C(=O)OC (centres undefined),T/C,[1],90 % of control
same,T/C,[3],95 % of control
same,T/C,"dose: 264.0 mg/kg/injection, schedule: Q01DX009 (ip), vehicle: saline with Tween-80",109 % of control
same,T/C,"dose: 400.0 mg/kg/injection, schedule: Q01DX009 (ip), vehicle: saline with Tween-80",109 % of control
CCCCCCCCCCCC(c1ccccc1)[N+](C)(C)C (centres undefined),T/C,"dose: 1.0 mg/kg/injection, schedule: Q01DX010 (ip), vehicle: saline",100 % of control
same,T/C,"dose: 2.0 mg/kg/injection, schedule: Q01DX010 (ip), vehicle: saline",104 % of control
same,T/C,"dose: 4.0 mg/kg/injection, schedule: Q01DX010 (ip), vehicle: saline",116 % of control
same,T/C,"dose: 4.0 mg/kg/injection, schedule: Q04DX003 (ip), vehicle: saline",113 % of control
same,T/C,"dose: 8.0 mg/kg/injection, schedule: Q04DX003 (ip), vehicle: saline",118 % of control
same,T/C,"dose: 16.0 mg/kg/injection, schedule: Q04DX003 (ip), vehicle: saline",100 % of control
CN1CCN(c2cc3c(cc2[N+](=O)[O-])no[n+]3[O-])CC1,T/C,"dose: 15.0 mg/kg/injection, schedule: Q01DX009 (ip), vehicle: saline with Tween-80",123 % of control
same,T/C,"dose: 30.0 mg/kg/injection, schedule: Q01DX009 (ip), vehicle: saline with Tween-80",120 % of control
same,T/C,"dose: 60.0 mg/kg/injection, schedule: Q01DX009 (ip), vehicle: saline with Tween-80",103 % of control
